Reference: patent EP4635500A1, “THERAPEUTIC AGENT FOR BACTERIAL INFECTION” (Sumitomo Pharma Co., Ltd., priority 2022, dated 2024)
In brackets after ≈: the same amount, converted by molar mass. Read-outs that look alike come from different tables or passages of the source.

Columns and labels:
[1] = tested on: Acinetobacter baumannii; experiment: Systemic infection lethal mouse model, ED50 (Example 15, Table 34); conditions: for ED50: Acinetobacter baumannii, in Mus musculus; for Survival rate: 7 days after infection
Experimental: The test strains on the agar medium were suspended in saline and adjusted to a Klett unit of about 200 using a Klett Photoelectric Colorimeter. […] Male ICR mice were inoculated intraperitoneally with 0.2 mL of the bacterial suspension. Two hours after the inoculation, saline or a solution for administering the agent of each concentration was administered subcutaneously to the mice in a single dose. The number of mice that survived from Day 1 to Day 7 after infection was recorded.

[2] = cited from earlier work
[3] = tested on: carbapenemase-producing Enterobacteriaceae (CPE); experiment: MIC with human plasma or human serum albumin added (Example 12, Table 28); assay type: cell-based
[4] = tested on: P. aeruginosa; experiment: MIC, Gram-negative bacteria clinically isolated in the United States (Example 8, Table 16); assay type: cell-based; conditions: Pseudomonas aeruginosa; P. aeruginosa (80 strains) isolated in the United States; Compound A µg/mL in parentheses
[5] = mouse, in vivo

C[C@@H](O)[C@H]1C(=O)N2C(C(=O)O)=C(S[C@@H]3CN[C@H](C(=O)N(C)C)C3)[C@H](C)[C@H]12 [MEPM, meropenem]
ED50 of MEPM ([1]; Acinetobacter baumannii CDC-303 (OXA-23, OXA-66), single s.c. dose, with cilastatin 100 mg/kg): ≥ 300 mg/kg
ED50 ([1]; read-out: ED50 of MEPM, value estimated by probit analysis, CDC-83 (Serine and metallo), cell prints ND, estimate in brackets, above the highest dose of 300 mg/kg): 401 mg/kg
ED50 ([1]; read-out: ED50 of MEPM, value estimated by probit analysis, CDC-303 (Serine), cell prints ND, estimate in brackets, above the highest dose of 300 mg/kg): 6550 mg/kg
ED50 ([1]; sc, read-out: ED50 of MEPM): ≥ 300 mg/kg
Survival rate ([1]; CDC-83 (Serine and metallo), Dose 30 mg/kg): 0%
Survival rate ([1]; CDC-83 (Serine and metallo), Dose 100 mg/kg): 10%
Survival rate ([1]; CDC-83 (Serine and metallo), Dose 200 mg/kg): 20%
Survival rate ([1]; CDC-83 (Serine and metallo), Dose 300 mg/kg): 40%
Survival rate ([1]; CDC-303 (Serine), Dose 50 mg/kg): 10%
Survival rate ([1]; CDC-303 (Serine), Dose 100 mg/kg): 0%
Survival rate ([1]; CDC-303 (Serine), Dose 200 mg/kg): 10%
Survival rate ([1]; CDC-303 (Serine), Dose 300 mg/kg): 20%
human protein binding rate ([2]; Reference 2): 2%
Cmax ([2]; human, 2 g intravenously for 3 hours every 8 hours, Reference 3): 46000 ng/mL
MIC ([3]; Escherichia coli, ATCC25922, read-out: MICs of MEPM, E. coli ATCC 25922 (quality control strain), Albumin 0% (standard condition)): 0.015 µg/mL (≈ 0.0391 µM)
MIC ([3]; Escherichia coli, ATCC25922, read-out: MICs of MEPM, E. coli ATCC 25922 (quality control strain), Albumin 4%): 0.03 µg/mL (≈ 0.0782 µM)
MIC ([3]; Escherichia coli, ATCC25922, read-out: MICs of MEPM, E. coli ATCC 25922 (quality control strain), Plasma 20%): 0.03 µg/mL (≈ 0.0782 µM)
MIC ([3]; Escherichia coli, ATCC25922, read-out: MICs of MEPM, E. coli ATCC 25922 (quality control strain), Plasma 50%): 0.03 µg/mL (≈ 0.0782 µM)
MIC ([3]; Escherichia coli, ATCCBAA2340, read-out: MICs of MEPM, E. coli ATCC BAA-2340 (KPC-3), Albumin 0% (standard condition)): 4 µg/mL (≈ 10.4 µM)
MIC ([3]; Escherichia coli, ATCCBAA2340, read-out: MICs of MEPM, E. coli ATCC BAA-2340 (KPC-3), Albumin 4%): 4 µg/mL (≈ 10.4 µM)
MIC ([3]; Escherichia coli, ATCCBAA2340, read-out: MICs of MEPM, E. coli ATCC BAA-2340 (KPC-3), Plasma 20%): 4 µg/mL (≈ 10.4 µM)
MIC ([3]; Escherichia coli, ATCCBAA2340, read-out: MICs of MEPM, E. coli ATCC BAA-2340 (KPC-3), Plasma 50%): 0.5 µg/mL (≈ 1.3 µM)
MIC ([3]; Escherichia coli, ATCCBAA2469, read-out: MICs of MEPM, E. coli ATCC BAA-2469 (NDM-1), Albumin 0% (standard condition)): 32 µg/mL (≈ 83.4 µM)
MIC ([3]; Escherichia coli, ATCCBAA2469, read-out: MICs of MEPM, E. coli ATCC BAA-2469 (NDM-1), Albumin 4%): 16 µg/mL (≈ 41.7 µM)
MIC ([3]; Escherichia coli, ATCCBAA2469, read-out: MICs of MEPM, E. coli ATCC BAA-2469 (NDM-1), Plasma 20%): ≤ 0.12 µg/mL
MIC ([3]; Escherichia coli, ATCCBAA2469, read-out: MICs of MEPM, E. coli ATCC BAA-2469 (NDM-1), Plasma 50%): ≤ 0.12 µg/mL
MIC ([3]; Escherichia coli, NCTC13476, read-out: MICs of MEPM, E. coli NCTC 13476 (IMP-1), Albumin 0% (standard condition)): 4 µg/mL (≈ 10.4 µM)
MIC ([3]; Escherichia coli, NCTC13476, read-out: MICs of MEPM, E. coli NCTC 13476 (IMP-1), Albumin 4%): 4 µg/mL (≈ 10.4 µM)
MIC ([3]; Escherichia coli, NCTC13476, read-out: MICs of MEPM, E. coli NCTC 13476 (IMP-1), Plasma 20%): 1 µg/mL (≈ 2.61 µM)
MIC ([3]; Escherichia coli, NCTC13476, read-out: MICs of MEPM, E. coli NCTC 13476 (IMP-1), Plasma 50%): 0.5 µg/mL (≈ 1.3 µM)
MIC ([3]; Klebsiella pneumoniae, ATCCBAA2342, read-out: MICs of MEPM, K. pneumoniae ATCC BAA-2342 (KPC-3), Albumin 0% (standard condition)): 16 µg/mL (≈ 41.7 µM)
MIC ([3]; Klebsiella pneumoniae, ATCCBAA2342, read-out: MICs of MEPM, K. pneumoniae ATCC BAA-2342 (KPC-3), Albumin 4%): 32 µg/mL (≈ 83.4 µM)
MIC ([3]; Klebsiella pneumoniae, ATCCBAA2342, read-out: MICs of MEPM, K. pneumoniae ATCC BAA-2342 (KPC-3), Plasma 20%): 16 µg/mL (≈ 41.7 µM)
MIC ([3]; Klebsiella pneumoniae, ATCCBAA2342, read-out: MICs of MEPM, K. pneumoniae ATCC BAA-2342 (KPC-3), Plasma 50%): 16 µg/mL (≈ 41.7 µM)
MIC ([3]; Klebsiella pneumoniae, ATCCBAA2344, read-out: MICs of MEPM, K. pneumoniae ATCC BAA-2344 (KPC-2), Albumin 0% (standard condition)): 16 µg/mL (≈ 41.7 µM)
MIC ([3]; Klebsiella pneumoniae, ATCCBAA2344, read-out: MICs of MEPM, K. pneumoniae ATCC BAA-2344 (KPC-2), Albumin 4%): 32 µg/mL (≈ 83.4 µM)
MIC ([3]; Klebsiella pneumoniae, ATCCBAA2344, read-out: MICs of MEPM, K. pneumoniae ATCC BAA-2344 (KPC-2), Plasma 20%): 16 µg/mL (≈ 41.7 µM)
MIC ([3]; Klebsiella pneumoniae, ATCCBAA2344, read-out: MICs of MEPM, K. pneumoniae ATCC BAA-2344 (KPC-2), Plasma 50%): 16 µg/mL (≈ 41.7 µM)
MIC ([3]; Klebsiella pneumoniae, ATCCBAA2470, read-out: MICs of MEPM, K. pneumoniae ATCC BAA-2470 (NDM-1), Albumin 0% (standard condition)): 16 µg/mL (≈ 41.7 µM)
MIC ([3]; Klebsiella pneumoniae, ATCCBAA2470, read-out: MICs of MEPM, K. pneumoniae ATCC BAA-2470 (NDM-1), Albumin 4%): 8 µg/mL (≈ 20.9 µM)
MIC ([3]; Klebsiella pneumoniae, ATCCBAA2470, read-out: MICs of MEPM, K. pneumoniae ATCC BAA-2470 (NDM-1), Plasma 20%): 0.5 µg/mL (≈ 1.3 µM)
MIC ([3]; Klebsiella pneumoniae, ATCCBAA2470, read-out: MICs of MEPM, K. pneumoniae ATCC BAA-2470 (NDM-1), Plasma 50%): 0.5 µg/mL (≈ 1.3 µM)
MIC ([3]; Klebsiella pneumoniae, ATCCBAA2524, read-out: MICs of MEPM, K. pneumoniae ATCC BAA-2524 (OXA-48), Albumin 0% (standard condition)): 1 µg/mL (≈ 2.61 µM)
MIC ([3]; Klebsiella pneumoniae, ATCCBAA2524, read-out: MICs of MEPM, K. pneumoniae ATCC BAA-2524 (OXA-48), Albumin 4%): 0.5 µg/mL (≈ 1.3 µM)
MIC ([3]; Klebsiella pneumoniae, ATCCBAA2524, read-out: MICs of MEPM, K. pneumoniae ATCC BAA-2524 (OXA-48), Plasma 20%): 2 µg/mL (≈ 5.22 µM)
MIC ([3]; Klebsiella pneumoniae, ATCCBAA2524, read-out: MICs of MEPM, K. pneumoniae ATCC BAA-2524 (OXA-48), Plasma 50%): 4 µg/mL (≈ 10.4 µM)
MIC ([3]; read-out: MICs of MEPM, K pneumoniae NCTC13439 (VIM-1), Albumin 0% (standard condition)): 4 µg/mL (≈ 10.4 µM)
MIC ([3]; read-out: MICs of MEPM, K pneumoniae NCTC13439 (VIM-1), Albumin 4%): 2 µg/mL (≈ 5.22 µM)
MIC ([3]; read-out: MICs of MEPM, K pneumoniae NCTC13439 (VIM-1), Plasma 20%): ≤ 0.12 µg/mL
MIC ([3]; read-out: MICs of MEPM, K pneumoniae NCTC13439 (VIM-1), Plasma 50%): ≤ 0.12 µg/mL
MIC50 [4]: 2 µg/mL (≈ 5.22 µM)
MIC90 [4]: 32 µg/mL (≈ 83.4 µM)
%fT > 8 µg/mL [5]: ≥ 40%
